Laboratory results published in the NIST ThermoML archive (doi:10.1021/je034102r).

Experiment: molar heat capacity at constant pressure
Conditions: 101.33 kPa, Liquid, heat bridge-scanning calorimeter

CCCCn1cc[n+](C)c1.F[P-](F)(F)(F)(F)F [1-butyl-3-methylimidazolium hexafluorophosphate]
Conditions | molar heat capacity at constant pressure [J/K/mol]
510.16 K | 506.7
510.29 K | 506.13
510.43 K | 506.7
510.57 K | 507.55
510.86 K | 507.83
511 K | 507.27
511.14 K | 506.7
511.28 K | 506.41
511.41 K | 505.84
511.55 K | 506.41
511.69 K | 507.27
511.83 K | 506.98
511.96 K | 506.41
512.26 K | 506.7
512.4 K | 507.27
512.54 K | 507.55
512.68 K | 507.55
512.81 K | 507.55
512.95 K | 506.98
513.09 K | 506.7
513.23 K | 506.98
513.36 K | 506.98
513.5 K | 506.7
513.64 K | 506.41
513.93 K | 506.13
514.07 K | 506.13
514.21 K | 506.13
514.35 K | 506.41
514.48 K | 507.27
514.62 K | 507.83
514.77 K | 507.83
514.91 K | 507.27
515.05 K | 506.98
515.35 K | 507.55
515.49 K | 507.55
515.62 K | 506.98
515.76 K | 506.98
515.9 K | 506.98
516.04 K | 507.27
516.18 K | 507.27
516.31 K | 506.98
516.45 K | 506.98
516.59 K | 506.98
516.73 K | 506.7
517.03 K | 507.27
517.16 K | 506.98
517.3 K | 507.27
517.44 K | 506.98
517.58 K | 506.98
517.71 K | 507.27
517.85 K | 506.98
517.99 K | 506.98
518.13 K | 507.27
518.43 K | 508.97
518.57 K | 508.12
518.71 K | 507.83
518.85 K | 507.55
518.98 K | 507.83
519.12 K | 508.12
519.26 K | 508.4
519.4 K | 508.4
519.53 K | 508.4
519.67 K | 508.12
519.81 K | 508.12
520.11 K | 508.12
520.24 K | 508.4
520.38 K | 508.97
520.52 K | 508.97
520.66 K | 509.25
520.79 K | 509.54
520.93 K | 509.54
521.07 K | 509.25
521.22 K | 508.97
521.52 K | 509.25
521.66 K | 509.25
521.8 K | 509.25
521.94 K | 509.25
522.07 K | 509.25
522.21 K | 509.54
522.35 K | 509.82
522.49 K | 510.39
522.62 K | 510.39
522.76 K | 510.11
522.9 K | 510.11
523.2 K | 510.11
523.33 K | 509.82
523.47 K | 509.82
523.61 K | 509.82
523.75 K | 509.82
523.88 K | 510.11
524.02 K | 510.39
524.16 K | 510.11
524.3 K | 509.82
524.6 K | 509.82
524.74 K | 510.11
524.87 K | 510.11
